Article PMC3388080 (PLoS ONE, 2012)

Test system: male Sprague-Dawley rats
Experiment: EEG/EMG/Tcore/LMA telemetry sleep study 2 (EMPA vs ZOL)
Format: in vivo, rat
Conditions: for REM:NR ratio: 6 h after dosing
Protocol: All rodent electroencephalograph (EEG) studies were performed at SRI International. Three groups of eight male Sprague-Dawley rats (300±25 g; Charles River, Wilmington, MA) were implanted with chronic recording devices (F40-EET, Data Sciences Inc., St Paul, MN) for continuous recordings of EEG, electromyograph (EMG), core body temperature (Tcore), and LMA via telemetry as previously described. Data recording and scoring were performed as previously reported (see also Supplemental Material and Methods). The EEG and EMG data were scored in 10 sec epochs for waking (W), rapid eye movement sleep (REM), and non-REM sleep (NR). Tcore and LMA (counts per minute) were analyzed as hourly means. Data from the EEG studies are reported in hourly means such that the hourly time ZT1 refers to the hour between time points ZT0 and ZT1.
For each of the three separate studies, a repeated measures counter-balanced design was employed in which each rat received five separate dosings. […] All dosings were administered ip in a volume of 2 ml/kg. A minimum of 3 d elapsed between doses. Dosing occurred during the middle of the rats’ normal active period at the start of ZT19 and was typically completed within 10 min. Animals were continuously recorded for 6 h prior to dosing and for 18 h following dosing.

CCN(Cc1cccnc1)C(=O)CN(c1ccc(OC)nc1)S(=O)(=O)c1ccccc1C [EMPA, N-(Ethyl-2-[(6-methoxy-pyridin-3-yl)-(toluene-2-sulfonyl)-amino]-N-pyridin-3-ylmethyl-acetamide)]
LMA (in words) (100 mg/kg ip, across 6 h, vs vehicle): LMA was decreased | cumulative NR (in words) (100 mg/kg ip, first 4 and 6 h periods): increased cumulative NR | NR bout duration (6 h Average, 30 mg/kg ip): 1.43 ±0.14 | REM bout duration (6 h Average, 30 mg/kg ip): 0.88 ± 0.09 | W bout duration (6 h Average, 30 mg/kg ip): 5.35 ±0.77 | NR bout duration (6 h Average, 100 mg/kg ip): 1.28 ± 0.12^+ | REM bout duration (6 h Average, 100 mg/kg ip): 0.96 ± 0.09 | W bout duration (6 h Average, 100 mg/kg ip): 3.54 ± 0.20 | NR bout duration (6 h Average, EMPA 10 mg/kg ip): 1.34 ± 0.17 | REM bout duration (6 h Average, EMPA 10 mg/kg ip): 0.79 ± 0.09 | W bout duration (6 h Average, EMPA 10 mg/kg ip): 5.56 ± 0.52 | Number of NR bouts (6 h Total, 30 mg/kg ip): 68.80 ± 7.18 | Number of REM bouts (6 h Total, 30 mg/kg ip): 22.10 ± 3.30^+ | Number of W bouts (6 h Total, 30 mg/kg ip): 51.30 ± 4.95 | Number of NR bouts (6 h Total, 100 mg/kg ip): 84.80 ± 5.06 | Number of REM bouts (6 h Total, 100 mg/kg ip): 20.00 ± 1.93^+ | Number of W bouts (6 h Total, 100 mg/kg ip): 65.10 ± 3.37 | Number of NR bouts (6 h Total, EMPA 10 mg/kg ip): 68.80 ±6.22 | Number of REM bouts (6 h Total, EMPA 10 mg/kg ip): 18.10 ± 2.28^+ | Number of W bouts (6 h Total, EMPA 10 mg/kg ip): 50.20 ±5.70 | REM:NR ratio (10 mg/kg ip (EMPA)): 0.16±0.019^+ | REM:NR ratio (30 mg/kg ip): 0.21±0.032^+ | REM:NR ratio (100 mg/kg ip): 0.18±0.027^+ | NR bout duration (ZT19, 30 mg/kg ip): 1.27± 0.15^+ | Number of NR bouts (ZT19, 30 mg/kg ip): 9.90 ± 1.60 | Number of REM bouts (ZT19, 30 mg/kg ip): 1.20± 0.49 | Number of W bouts (ZT19, 30 mg/kg ip): 6.20± 0.98 | REM bout duration (ZT19, 30 mg/kg ip): 0.62± 0.22 | W bout duration (ZT19, 30 mg/kg ip): 11.89± 5.40 | NR bout duration (ZT19, 100 mg/kg ip): 1.11± 0.19^+ | Number of NR bouts (ZT19, 100 mg/kg ip): 10.80± 2.39 | Number of REM bouts (ZT19, 100 mg/kg ip): 0.90± 0.46 | Number of W bouts (ZT19, 100 mg/kg ip): 9.80± 2.48 | REM bout duration (ZT19, 100 mg/kg ip): 0.86± 0.19 | W bout duration (ZT19, 100 mg/kg ip): 13.14± 5.99 | NR bout duration (ZT19, EMPA 10 mg/kg ip): 1.60± 0.25^+ | Number of NR bouts (ZT19, EMPA 10 mg/kg ip): 7.40 ± 2.00 | Number of REM bouts (ZT19, EMPA 10 mg/kg ip): 1.60± 0.67 | Number of W bouts (ZT19, EMPA 10 mg/kg ip): 4.60± 1.25 | REM bout duration (ZT19, EMPA 10 mg/kg ip): 0.64± 0.15 | W bout duration (ZT19, EMPA 10 mg/kg ip): 16.42± 5.00 | NR bout duration (ZT20, 30 mg/kg ip): 1.50± 0.28^+ | Number of NR bouts (ZT20, 30 mg/kg ip): 12.50± 2.18 | Number of REM bouts (ZT20, 30 mg/kg ip): 4.40± 0.96^+ | Number of W bouts (ZT20, 30 mg/kg ip): 8.30± 1.27 | REM bout duration (ZT20, 30 mg/kg ip): 0.87± 0.13 | W bout duration (ZT20, 30 mg/kg ip): 9.83± 5.62 | NR bout duration (ZT20, 100 mg/kg ip): 1.86± 0.28^+ | Number of NR bouts (ZT20, 100 mg/kg ip): 16.50± 2.03 | Number of REM bouts (ZT20, 100 mg/kg ip): 5.00± 1.12^+ | Number of W bouts (ZT20, 100 mg/kg ip): 11.60± 1.11 | REM bout duration (ZT20, 100 mg/kg ip): 0.88± 0.08 | W bout duration (ZT20, 100 mg/kg ip): 2.46± 0.62 | NR bout duration (ZT20, EMPA 10 mg/kg ip): 1.15± 0.15^+ | Number of NR bouts (ZT20, EMPA 10 mg/kg ip): 14.00±2.52 | Number of REM bouts (ZT20, EMPA 10 mg/kg ip): 4.10± 1.11 | Number of W bouts (ZT20, EMPA 10 mg/kg ip): 10.70± 1.85 | REM bout duration (ZT20, EMPA 10 mg/kg ip): 0.90± 0.18 | W bout duration (ZT20, EMPA 10 mg/kg ip): 9.37± 5.67 | NR bout duration (ZT21, 30 mg/kg ip): 1.52± 0.21 | Number of NR bouts (ZT21, 30 mg/kg ip): 15.90± 2.21 | Number of REM bouts (ZT21, 30 mg/kg ip): 5.80± 1.35 | Number of W bouts (ZT21, 30 mg/kg ip): 11.70± 1.55 | REM bout duration (ZT21, 30 mg/kg ip): 1.01 ± 0.11 | W bout duration (ZT21, 30 mg/kg ip): 3.04± 0.83 | NR bout duration (ZT21, 100 mg/kg ip): 1.17± 0.11 | Number of NR bouts (ZT21, 100 mg/kg ip): 17.00± 2.91 | Number of REM bouts (ZT21, 100 mg/kg ip): 4.10± 1.08 | Number of W bouts (ZT21, 100 mg/kg ip): 12.40± 2.01 | REM bout duration (ZT21, 100 mg/kg ip): 1.18 ± 0.14^+ | W bout duration (ZT21, 100 mg/kg ip): 8.88± 5.82 | NR bout duration (ZT21, EMPA 10 mg/kg ip): 1.12± 0.17 | Number of NR bouts (ZT21, EMPA 10 mg/kg ip): 13.50± 2.15 | Number of REM bouts (ZT21, EMPA 10 mg/kg ip): 3.40± 0.73 | Number of W bouts (ZT21, EMPA 10 mg/kg ip): 10.20± 1.61 | REM bout duration (ZT21, EMPA 10 mg/kg ip): 0.69 ± 0.11 | W bout duration (ZT21, EMPA 10 mg/kg ip): 6.55± 2.67 | NR bout duration (ZT22, 30 mg/kg ip): 1.38± 0.15 | Number of NR bouts (ZT22, 30 mg/kg ip): 12.20± 1.65 | Number of REM bouts (ZT22, 30 mg/kg ip): 5.30± 1.09 | Number of W bouts (ZT22, 30 mg/kg ip): 9.20± 1.32 | REM bout duration (ZT22, 30 mg/kg ip): 0.83± 0.13 | W bout duration (ZT22, 30 mg/kg ip): 4.90± 1.31 | NR bout duration (ZT22, 100 mg/kg ip): 1.32± 0.31 | Number of NR bouts (ZT22, 100 mg/kg ip): 18.40± 2.70 | Number of REM bouts (ZT22, 100 mg/kg ip): 4.80± 0.98 | Number of W bouts (ZT22, 100 mg/kg ip): 13.20± 1.76 | REM bout duration (ZT22, 100 mg/kg ip): 0.84± 0.17 | W bout duration (ZT22, 100 mg/kg ip): 2.84± 0.49 | NR bout duration (ZT22, EMPA 10 mg/kg ip): 1.33± 0.24 | Number of NR bouts (ZT22, EMPA 10 mg/kg ip): 12.70± 1.87 | Number of REM bouts (ZT22, EMPA 10 mg/kg ip): 3.30± 0.58 | Number of W bouts (ZT22, EMPA 10 mg/kg ip): 8.20± 1.73 | REM bout duration (ZT22, EMPA 10 mg/kg ip): 0.84± 0.16 | W bout duration (ZT22, EMPA 10 mg/kg ip): 7.34± 2.67 | NR bout duration (ZT23, 30 mg/kg ip): 0.90± 0.11^+ | Number of NR bouts (ZT23, 30 mg/kg ip): 10.80± 2.35 | Number of REM bouts (ZT23, 30 mg/kg ip): 3.40± 1.24 | Number of W bouts (ZT23, 30 mg/kg ip): 8.00± 1.56 | REM bout duration (ZT23, 30 mg/kg ip): 0.75± 0.21 | W bout duration (ZT23, 30 mg/kg ip): 11.46± 5.56 | NR bout duration (ZT23, 100 mg/kg ip): 1.10± 0.20 | Number of NR bouts (ZT23, 100 mg/kg ip): 12.30± 1.25 | Number of REM bouts (ZT23, 100 mg/kg ip): 3.20± 0.63 | Number of W bouts (ZT23, 100 mg/kg ip): 8.60± 1.01 | REM bout duration (ZT23, 100 mg/kg ip): 0.96± 0.19 | W bout duration (ZT23, 100 mg/kg ip): 4.89 ±0.81 | NR bout duration (ZT23, EMPA 10 mg/kg ip): 1.39± 0.18 | Number of NR bouts (ZT23, EMPA 10 mg/kg ip): 11.00± 1.40 | Number of REM bouts (ZT23, EMPA 10 mg/kg ip): 3.40± 0.65 | Number of W bouts (ZT23, EMPA 10 mg/kg ip): 7.90± 1.27 | REM bout duration (ZT23, EMPA 10 mg/kg ip): 0.85± 0.09 | W bout duration (ZT23, EMPA 10 mg/kg ip): 6.10± 1.02 | NR bout duration (ZT24, 30 mg/kg ip): 1.45± 0.49 | Number of NR bouts (ZT24, 30 mg/kg ip): 7.50± 1.61 | Number of REM bouts (ZT24, 30 mg/kg ip): 2.00± 0.94 | Number of W bouts (ZT24, 30 mg/kg ip): 7.10± 1.63 | REM bout duration (ZT24, 30 mg/kg ip): 0.69± 0.13 | W bout duration (ZT24, 30 mg/kg ip): 16.83± 7.31 | NR bout duration (ZT24, 100 mg/kg ip): 1.04± 0.17 | Number of NR bouts (ZT24, 100 mg/kg ip): 9.40± 2.24 | Number of REM bouts (ZT24, 100 mg/kg ip): 2.00± 1.01 | Number of W bouts (ZT24, 100 mg/kg ip): 8.40± 1.92 | REM bout duration (ZT24, 100 mg/kg ip): 0.49± 0.09 | W bout duration (ZT24, 100 mg/kg ip): 14.62± 6.09 | NR bout duration (ZT24, EMPA 10 mg/kg ip): 1.25± 0.18^+ | Number of NR bouts (ZT24, EMPA 10 mg/kg ip): 10.00± 2.22 | Number of REM bouts (ZT24, EMPA 10 mg/kg ip): 2.30± 0.98 | Number of W bouts (ZT24, EMPA 10 mg/kg ip): 7.80± 1.76 | REM bout duration (ZT24, EMPA 10 mg/kg ip): 0.54± 0.10 | W bout duration (ZT24, EMPA 10 mg/kg ip): 9.17± 2.45 | NR or REM latency (in words) (administered in the mid-dark phase): no effect on either NR or REM latency | number of W bouts (in words) (all three concentrations (10, 30, 100 mg/kg ip)): increased the number of W bouts | Tcore (in words) (high concentration tested, across 6 h): decreased Tcore | NR during the subsequent light period (in words) (light period): No significant effects on NR
